# Assays:
# [1] = biological target: T1, recombinant mouse retbindin (mRTBN, RTBDN) (Mus musculus, UniProt Q8QZY4); test: bio-layer interferometry; format: binding; settings: PBS
# T1 sequence (Q8QZY4 32-247): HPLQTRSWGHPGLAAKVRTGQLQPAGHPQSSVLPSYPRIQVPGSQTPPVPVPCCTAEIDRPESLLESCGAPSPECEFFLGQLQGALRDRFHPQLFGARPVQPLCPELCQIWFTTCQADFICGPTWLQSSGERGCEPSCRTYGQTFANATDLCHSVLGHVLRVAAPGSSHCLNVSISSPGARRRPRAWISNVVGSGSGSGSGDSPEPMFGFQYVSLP
# [2] = biological target: Bovine Interphotoreceptor Retinoid Binding Protein (bIRBP) (Bos taurus, UniProt P12661); test: bio-layer interferometry; settings: PBS; ligand predissolved in DMSO, 1-10 μM
# Bovine Interphotoreceptor Retinoid Binding Protein (bIRBP), sequence (P12661 23-1286): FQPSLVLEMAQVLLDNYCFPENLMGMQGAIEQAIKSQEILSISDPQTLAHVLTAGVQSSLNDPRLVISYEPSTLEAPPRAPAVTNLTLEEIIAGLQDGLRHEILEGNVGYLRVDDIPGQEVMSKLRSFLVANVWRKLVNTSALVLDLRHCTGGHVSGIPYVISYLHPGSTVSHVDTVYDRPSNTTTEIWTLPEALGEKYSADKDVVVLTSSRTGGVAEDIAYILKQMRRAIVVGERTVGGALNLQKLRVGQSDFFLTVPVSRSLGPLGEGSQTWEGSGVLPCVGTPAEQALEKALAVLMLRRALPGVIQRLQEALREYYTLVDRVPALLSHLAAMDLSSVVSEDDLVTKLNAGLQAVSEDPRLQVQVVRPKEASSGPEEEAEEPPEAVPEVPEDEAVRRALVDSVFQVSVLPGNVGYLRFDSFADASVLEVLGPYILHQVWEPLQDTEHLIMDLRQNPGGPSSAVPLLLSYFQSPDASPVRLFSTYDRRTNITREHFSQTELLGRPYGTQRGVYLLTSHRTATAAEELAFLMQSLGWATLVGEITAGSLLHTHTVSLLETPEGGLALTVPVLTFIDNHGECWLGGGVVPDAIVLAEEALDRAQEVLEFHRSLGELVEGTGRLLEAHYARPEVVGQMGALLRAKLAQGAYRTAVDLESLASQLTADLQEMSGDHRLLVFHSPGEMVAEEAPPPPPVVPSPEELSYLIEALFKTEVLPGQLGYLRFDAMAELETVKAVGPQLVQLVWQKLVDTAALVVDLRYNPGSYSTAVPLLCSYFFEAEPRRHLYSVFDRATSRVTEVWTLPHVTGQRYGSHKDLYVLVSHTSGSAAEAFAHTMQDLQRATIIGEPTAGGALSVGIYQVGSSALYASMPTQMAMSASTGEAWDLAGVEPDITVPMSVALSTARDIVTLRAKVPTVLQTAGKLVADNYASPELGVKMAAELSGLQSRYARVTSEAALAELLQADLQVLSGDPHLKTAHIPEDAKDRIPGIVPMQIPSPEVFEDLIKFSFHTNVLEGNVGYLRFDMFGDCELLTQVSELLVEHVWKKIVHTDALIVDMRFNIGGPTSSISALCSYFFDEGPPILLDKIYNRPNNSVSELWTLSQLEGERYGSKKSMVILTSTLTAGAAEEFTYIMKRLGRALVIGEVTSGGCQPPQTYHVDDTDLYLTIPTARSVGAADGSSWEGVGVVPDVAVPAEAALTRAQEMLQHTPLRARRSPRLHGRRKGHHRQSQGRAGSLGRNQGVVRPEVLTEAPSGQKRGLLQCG
SMILES,Dissociation constant [1],Dissociation constant ([1]; 1-100 μM),other results
CC1=C(/C=C/C(C)=C\C=C\C(C)=C\C=O)C(C)(C)CCC1 [9-cis retinal],"Dissociation constants for retinoids, flavins and fluorescein (as a control) on retbindin",,
CC1=C(/C=C/C(C)=C\C=C\C(C)=C\C(=O)O)C(C)(C)CCC1 [9-cis retinoic acid],"Dissociation constants for retinoids, flavins and fluorescein (as a control) on retbindin",,
CC1=C(/C=C/C(C)=C/C=C\C(C)=C\C=O)C(C)(C)CCC1 [11-cis retinal],,,"Dissociation constant ([1]; ligand predissolved in DMSO, 1-10 μM): the protein showed significant affinity for several retinoids, particularly for 11-cis retinal; Dissociation constant [2]: very similar to the well characterized 11-cis retinal transport protein IRBP"
CC1=C(/C=C/C(C)=C/C=C\C(C)=C\C(=O)O)C(C)(C)CCC1 [11-cis retinoic acid],"Dissociation constants for retinoids, flavins and fluorescein (as a control) on retbindin",,
Cc1cc2nc3c(=O)[nH]c(=O)nc-3n(C[C@H](O)[C@H](O)[C@H](O)COP(=O)(O)O)c2cc1C [FMN],,"Dissociation constants for retinoids, flavins and fluorescein (as a control) on retbindin",
CC1=C(/C=C/C(C)=C/C=C/C(C)=C/C=O)C(C)(C)CCC1 [all trans retinal],"Dissociation constants for retinoids, flavins and fluorescein (as a control) on retbindin",,
"O=C1OC2(c3ccc(O)cc3Oc3cc(O)ccc32)c2ccccc21 [fluorescein, reference compound]",,"Dissociation constants for retinoids, flavins and fluorescein (as a control) on retbindin",
Cc1cc2nc3c(=O)[nH]c(=O)nc-3n(C[C@H](O)[C@H](O)[C@H](O)CO)c2cc1C [riboflavin],,"Dissociation constants for retinoids, flavins and fluorescein (as a control) on retbindin",

# From paper PMC8595511 (Experimental eye research, 2021)
